According to ChEMBL document CHEMBL4364294 (J Med Chem, 2019):
Values after ≈ are worked out from the molar mass of the structure shown.

Legend:
[1] = Intrinsic clearance in human liver microsomes; format: ADME, Microsome; conditions: read-out: CLH
[2] = Aqueous solubility of the compound at pH 6.5; format: physicochemical
[3] = Aqueous solubility of the compound at pH 1; format: physicochemical
[4] = Aqueous solubility of the compound at pH 7.4; format: physicochemical

Row | SMILES | predicted hepatic clearance [1] [mL/min/kg] | solubility [2] [µM] | solubility [3] [µM] | solubility [4] [µM]
1 | OC(CC1c2c(F)cccc2-c2cncn21)C1CCCCC1 (centres undefined) | 18.9 |  |  | 
2 | O=C(N[C@H]1CC[C@H](C(O)CC2c3ccccc3-c3cncn32)CC1)c1ccccc1 (some centres undefined) |  | 22 (≈ 8.83 µg/mL) | 363 (≈ 146 µg/mL) | 25 (≈ 10 µg/mL)
